Data from PMC9677951 (Journal of medicinal chemistry, 2020).
Values joined by “and” are separate entries in the source; they are usually repeats but may differ in a detail not shown here. Identical values can stand only once. “Also recorded” adds a separate entry of the source. Like-named read-outs stand apart in the source and are kept apart here.

Key:
Kunming mice = assay: Acute toxicity study in Kunming mice; type: in vivo; details: single oral dose 2000 mg/kg
[1] = tested on: WT virus and NNRTI-resistant HIV-1 strains; assay: Broad-spectrum anti-HIV-1 activity against WT and NNRTI-resistant strains; type: cell-based; details: Human immunodeficiency virus 1, read-out: EC50 range, broad-spectrum activity
HIV-1 K103N = details: read-out: EC50 K103N; previously reported; ref [9]-[13]; cited from earlier work
WT HIV-1 (IIIB) [2] = details: read-out: EC50 WT; previously reported; ref [9]-[13]; cited from earlier work
[3] = tested on: HIV-1 strain RES056 (K103N+Y181C); details: read-out: EC50 RES056, previously reported, ref [9]-[13], cited from earlier work
HIV-1 E138K [4] = details: read-out: EC50 E138K; previously reported; ref [9]-[13]; cited from earlier work
HIV-1 F227L+V106A [5] = details: read-out: EC50 F227L+V106A; previously reported; ref [9]-[13]; cited from earlier work
[6] = tested on: HIV-1 strain RES056 (K103N+Y181C); details: read-out: EC50 RES056, MT-4 cells, MTT method
WT HIV-1 (IIIB) [7] = details: read-out: EC50 IIIB, MT-4 cells, MTT method
HIV-1 F227L+V106A [8] = assay: Anti-HIV-1 activity against F227L+V106A mutant in MT-4 cells, MTT method; type: cell-based; details: Human immunodeficiency virus 1, MT4, read-out: EC50 F227L+V106A
WT HIV-1 (IIIB) [9] = assay: microbe, parasite or virus in culture; details: Human immunodeficiency virus 1, IIIB, MT4, read-out: EC50 IIIB
HIV-1 Y181C = assay: Anti-HIV-1 activity against Y181C mutant in MT-4 cells, MTT method; type: cell-based; details: Human immunodeficiency virus 1, MT4, read-out: EC50 Y181C
HIV-1 Y188L = assay: Anti-HIV-1 activity against Y188L mutant in MT-4 cells, MTT method; type: cell-based; details: Human immunodeficiency virus 1, MT4, read-out: EC50 Y188L
HIV-1 E138K [10] = assay: Anti-HIV-1 activity against E138K mutant in MT-4 cells, MTT method; type: cell-based; details: Human immunodeficiency virus 1, MT4, read-out: EC50 E138K

Compound | EC50 (HIV-1 K103N) [nM] | EC50 (WT HIV-1 (IIIB) [2]) [nM] | EC50 (HIV-1 E138K [4]) [nM] | EC50 (HIV-1 F227L+V106A [5]) [nM] | EC50 [6] [nM] | EC50 [3] [nM] | other results
Cc1cc(/C=C/C#N)cc(C)c1Oc1nc(Nc2ccc(C#N)c(F)c2)nc2ccsc12 [Compound 24b, (E)-4-((4-(4-(2-cyanovinyl)-2,6-dimethylphenoxy)thieno[3,2-d]pyrimidin-2-yl)amino)-2-fluorobenzonitrile] | – | – | – | – | – | – | Acute toxicity: behaviors and body weight vs control group (Kunming mice): no abnormal behaviors or significant changes of body weight; Acute toxicity: mortality or poisoning symptoms (Kunming mice; following 7 days, 2000 mg/kg): no mortality or poisoning symptoms; also recorded: no acute toxicity; EC50 [1]: 3.6 to 21.5 nM
Cc1cc(C#N)cc(C)c1Oc1nc(NC2CCN(Cc3ccc(S(N)(=O)=O)cc3)CC2)nc2ccsc12 [Compound K-5a2] | 2.9 | 1.4 ± 0.4 | 2.9 | 4.2 ± 1.2 | – | – | EC50 ([3]; listed as 3): 30.6 nM and 31 nM
O=C1Nc2ccc(Cl)cc2[C@@](C#CC2CC2)(C(F)(F)F)O1 [EFV, efavirenz] | – | – | – | – | 260 ± 47.6 | – | EC50 (WT HIV-1 (IIIB) [7]): 2.49 ± 0.547 nM
Cc1cc(C#N)cc(C)c1Oc1nc(Nc2ccc(C#N)cc2)nc(N)c1Br [ETR, Etravirine] | 2.4 ± 0.6 | 4.1 ± 0.1 | 14 ± 2.2 | 29 ± 7.7 | 32.2 ± 12.2 | 17 ± 1.8 | EC50 (HIV-1 F227L+V106A [8]): 19.7 ± 7.3 nM; EC50 (WT HIV-1 (IIIB) [9]): 2.55 ± 0.37 nM; EC50 (HIV-1 Y181C): 14.5 ± 8.22 nM; EC50 (HIV-1 Y188L): 20.4 ± 8.64 nM; EC50 (HIV-1 E138K [10]): 9.76 ± 6.9 nM
Cc1cc(/C=C/C#N)cc(C)c1Nc1ccnc(Nc2ccc(C#N)cc2)n1 [RPV, rilpivirine] | – | 1 ± 0.3 | – | – | – | 11 ± 1.9 | –
